Measurements published in DBAASP.
≈ marks a conversion by molar mass, not a printed value.

Assays:
Test in all cases: ≥ marks a high value that may be exact or a test limit, other limits are often not marked, values filed in µg/mL are converted to µM
Escherichia coli = system: Escherichia coli
Bacillus cereus = system: Bacillus cereus
[1] = system: Escherichia coli ATCC 25922
[2] = system: Enterococcus faecalis ATCC 29212
[3] = system: Staphylococcus aureus ATCC 25923
[4] = system: Bacillus subtilis ATCC 23857
[5] = system: Klebsiella pneumoniae ATCC 700603
[6] = system: Acinetobacter baumannii ATCC 19606
[7] = system: Staphylococcus epidermidis ATCC 12228
[8] = system: Pseudomonas aeruginosa ATCC 27853
Staphylococcus aureus = system: Staphylococcus aureus
[9] = system: Escherichia coli ATCC 25726
[10] = system: Candida albicans ATCC 90028
[11] = system: Staphylococcus aureus ATCC 29213
[12] = system: Pseudomonas aeruginosa ATCC 9027

## CC[C@H](C)[C@H](NC(=O)[C@H](CCCCN)NC(=O)[C@@H](NC(=O)[C@@H](NC(=O)[C@@H](NC(=O)[C@H](CCC(N)=O)NC(=O)[C@H](C)NC(=O)CNC(=O)[C@H](CO)NC(=O)[C@H](CCCCN)NC(=O)[C@H](CCC(N)=O)NC(=O)[C@H](C)NC(=O)[C@H](CCCCN)NC(=O)[C@H](CCCCN)NC(=O)[C@H](C)N)[C@@H](C)O)[C@@H](C)CC)C(C)C)C(=O)N[C@@H](Cc1ccccc1)C(=O)N[C@@H](C)C(=O)N[C@@H](CCCCN)C(=O)NCC(=O)N[C@@H](CCSC)C(=O)O [AKKAQKSGAQTIVKIFAKGM]
Escherichia coli
  MIC: > 122 µM
Bacillus cereus
  MIC: ≥ 122 µM

## CC(C)C[C@H](NC(=O)[C@H](CC(C)C)NC(=O)[C@@H](NC(=O)[C@H](CCCCN)NC(=O)[C@H](Cc1ccccc1)NC(=O)[C@H](CCCN=C(N)N)NC(=O)[C@H](CCCCN)NC(=O)[C@H](CC(C)C)NC(=O)[C@H](CC(C)C)NC(=O)CN)[C@@H](C)O)C(N)=O [GLLKRFKTLL]
[1]
  MIC: 64 µM (≈ 76 µg/mL)
[2]
  MIC: 256 µM (≈ 304 µg/mL)
[3]
  MIC: 128 µM (≈ 152 µg/mL)
[4]
  MIC: ≥ 32 µM
[5]
  MIC: 128 µM (≈ 152 µg/mL)
[6]
  MIC: 256 µM (≈ 304 µg/mL)
[7]
  MIC: 16 µM (≈ 19 µg/mL)
[8]
  MIC: 16 µM (≈ 19 µg/mL)

## CC(C)C[C@H](NC(=O)[C@H](CCCCN)NC(=O)[C@H](Cc1ccccc1)NC(=O)[C@@H](NC(=O)[C@@H](NC(=O)CNC(=O)[C@H](CC(C)C)NC(=O)[C@@H](N)Cc1ccccc1)C(C)C)C(C)C)C(=O)N[C@@H](C)C(=O)N[C@@H](CO)C(=O)N[C@@H](CCCCN)C(=O)N[C@H](C(=O)N[C@@H](Cc1ccccc1)C(=O)N1CCC[C@H]1C(=O)N[C@@H](C)C(=O)N[C@H](C(=O)N[C@@H](Cc1ccccc1)C(=O)N[C@@H](CCCCN)C(=O)N[C@@H](CCCCN)C(=O)N[C@H](C(=O)O)C(C)C)C(C)C)C(C)C [FLGVVFKLASKVFPAVFKKV]
Escherichia coli
  MIC: 28.8 µM (≈ 64 µg/mL)
Bacillus cereus
  MIC: 7.19 µM (≈ 16 µg/mL)
Staphylococcus aureus
  MIC: 1.8 µM (≈ 4 µg/mL)

## CC(C)C[C@H](NC(=O)[C@@H](N)Cc1ccccc1)C(=O)NCC(=O)N[C@@H](CCCCN)C(=O)N[C@H](C(=O)N[C@H](C(=O)N[C@@H](CCCCN)C(=O)N[C@@H](CCCCN)C(=O)N[C@@H](C)C(=O)N[C@@H](CO)C(=O)N[C@@H](CCCCN)C(=O)N[C@H](C(=O)N[C@@H](Cc1ccccc1)C(=O)N1CCC[C@H]1C(=O)N[C@@H](C)C(=O)N[C@H](C(=O)N[C@@H](Cc1ccccc1)C(=O)NCC(=O)N[C@@H](CCCCN)C(=O)N[C@H](C(=O)O)C(C)C)C(C)C)C(C)C)C(C)C)C(C)C [FLGKVVKKASKVFPAVFGKV]
Escherichia coli
  MIC: 59.5 µM (≈ 128 µg/mL)
Bacillus cereus
  MIC: ≥ 59.5 µM
Staphylococcus aureus
  MIC: > 59.5 µM

## CC[C@H](C)[C@H](NC(=O)[C@H](CC(C)C)NC(=O)[C@H](CO)NC(=O)[C@@H]1CCCN1C(=O)[C@@H](NC(=O)[C@@H](NC(=O)[C@H](CCCCN)NC(=O)[C@H](CO)NC(=O)[C@H](C)NC(=O)[C@@H](NC(=O)[C@H](CO)NC(=O)CNC(=O)[C@@H](NC(=O)[C@H](C)NC(=O)[C@@H](N)CO)C(C)C)C(C)C)C(C)C)C(C)C)C(=O)N[C@@H](CO)C(=O)N[C@@H](CCCCN)C(=O)N[C@H](C(=O)N[C@H](C(=O)N[C@@H](CCCCN)C(=O)O)[C@@H](C)O)C(C)C [SAVGSVASKVVPSLISKVTK]
Escherichia coli
  MIC: > 131 µM
Bacillus cereus
  MIC: ≥ 131 µM

## CC[C@H](C)[C@H](NC(=O)CNC(=O)[C@@H](NC(=O)[C@H](CCSC)NC(=O)[C@H](C)NC(=O)[C@H](CC(N)=O)NC(=O)[C@H](CCCCN)NC(=O)[C@H](Cc1ccccc1)NC(=O)[C@H](CO)NC(=O)[C@H](CC(=O)O)NC(=O)[C@H](CC(C)C)NC(=O)[C@H](CC(C)C)NC(=O)CN)[C@@H](C)CC)C(=O)N[C@@H](C)C(=O)N[C@@H](CCCCN)C(=O)N[C@@H](CO)C(=O)N[C@@H](C)C(=O)NCC(=O)N[C@@H](CCCCN)C(=O)N[C@H](C(=O)N[C@@H](C)C(=O)N[C@@H](CC(C)C)C(=O)N[C@@H](CC(N)=O)C(=O)N[C@@H](CCCCN)C(=O)N[C@H](C(=O)N[C@@H](C)C(=O)N[C@H]1CSSC[C@@H](C(=O)O)NC(=O)[C@H]([C@@H](C)O)NC(=O)[C@H](CCCCN)NC(=O)[C@H](CC(=O)O)NC(=O)[C@H]([C@@H](C)CC)NC(=O)[C@H](CCCCN)NC1=O)[C@@H](C)CC)[C@@H](C)O [GLLDSFKNAMIGIAKSAGKTALNKIACKIDKTC]
[9]
  MIC: 18.2 µM (≈ 62.5 µg/mL)
[3]
  MIC: > 73 µM

## CC[C@H](C)[C@H](NC(=O)[C@H](CCCCN)NC(=O)[C@H](CO)NC(=O)[C@H](C)NC(=O)[C@H](Cc1c[nH]c2ccccc12)NC(=O)CN)C(=O)NCC(=O)N[C@@H](CCC(N)=O)C(=O)N[C@@H](C)C(=O)N[C@@H](CC(C)C)C(=O)NCC(=O)N[C@@H](CCCCN)C(=O)N[C@H](C(=O)N[C@@H](C)C(=O)N[C@@H](CCCCN)C(=O)N[C@H](C(=O)NCC(=O)N[C@@H](CC(C)C)C(=O)N[C@@H](CCC(N)=O)C(=O)N[C@@H](CCC(N)=O)C(=O)N[C@@H](Cc1ccccc1)C(=O)N[C@H](C(=O)N[C@@H](CCC(N)=O)C(=O)N1CCC[C@H]1C(=O)N[C@@H](CCCCN)C(=O)O)[C@@H](C)CC)C(C)C)C(C)C [GWASKIGQALGKVAKVGLQQFIQPK]
[9]
  MIC: 12.5 µM (≈ 33.2 µg/mL)
[3]
  MIC: > 100 µM

## CC[C@H](C)[C@H](N)C(=O)N[C@H](C(=O)N[C@H](C(=O)N1CCC[C@H]1C(=O)N1CCC[C@H]1C(=O)N[C@H](C(=O)N[C@H](C(=O)N[C@@H](CCCCN)C(=O)N[C@@H](CC(=O)O)C(=O)N[C@H](C(=O)N[C@@H](CC(C)C)C(=O)N[C@@H](CCCCN)C(=O)N[C@@H](CCCCN)C(=O)N[C@@H](Cc1ccccc1)C(=O)N[C@@H](Cc1ccccc1)C(=O)N[C@@H](CCCCN)C(=O)NCC(=O)NCC(=O)N[C@H](C(=O)N[C@@H](C)C(=O)NCC(=O)N[C@H](C(=O)N[C@@H](CCSC)C(=O)NCC(=O)N[C@@H](CCCCN)C(=O)N[C@@H](CO)C(=O)N[C@@H](CCC(N)=O)C(=O)O)C(C)C)[C@@H](C)CC)[C@@H](C)O)C(C)C)[C@@H](C)CC)[C@@H](C)CC)[C@@H](C)O [ITIPPIVKDTLKKFFKGGIAGVMGKSQ]
[9]
  MIC: ≥ 80 µM
[3]
  MIC: 40 µM (≈ 115 µg/mL)

## CC[C@H](C)[C@H](NC(=O)[C@H](CCCCN)NC(=O)CNC(=O)[C@H](C)NC(=O)[C@@H](NC(=O)[C@H](CO)NC(=O)CNC(=O)[C@H](C)NC(=O)[C@H](CCCCN)NC(=O)[C@H](CO)NC(=O)[C@H](C)NC(=O)[C@H](CCSC)NC(=O)CN)C(C)C)C(=O)N[C@@H](C)C(=O)N[C@@H](CCCCN)C(=O)N[C@@H](Cc1ccccc1)C(=O)N[C@@H](C)C(=O)N[C@@H](CC(C)C)C(=O)NCC(=O)N[C@@H](C)C(=O)N[C@@H](CC(C)C)C(N)=O [GMASKAGSVAGKIAKFALGAL]
[9]
  MIC: ≥ 80 µM
[3]
  MIC: 80 µM (≈ 156 µg/mL)
[10]
  MIC: ≥ 160 µM

## CC[C@H](C)[C@H](N)C(=O)N[C@@H](CC(=O)O)C(=O)N[C@@H](Cc1c[nH]c2ccccc12)C(=O)N[C@@H](CCCCN)C(=O)N[C@@H](CCCCN)C(=O)N[C@@H](CC(C)C)C(=O)N[C@@H](CC(C)C)C(=O)N1CCC[C@H]1C(=O)N[C@@H](C)C(=O)N[C@@H](C)C(=O)N[C@@H](CCCCN)C(=O)N[C@@H](CCC(N)=O)C(=O)N[C@H](C(=O)N[C@@H](CC(C)C)C(N)=O)[C@@H](C)CC [IDWKKLLPAAKQIL]
[1]
  MIC: 128 µM (≈ 209 µg/mL)
[11]
  MIC: 512 µM (≈ 838 µg/mL)
[4]
  MIC: ≥ 32 µM
[7]
  MIC: 256 µM (≈ 419 µg/mL)

## CC[C@H](C)[C@H](NC(=O)[C@H](C)NC(=O)[C@H](CCCCN)NC(=O)[C@H](C)NC(=O)[C@@H](NC(=O)[C@H](C)NC(=O)[C@H](CC(C)C)NC(=O)[C@H](CC(C)C)NC(=O)[C@H](C)NC(=O)[C@H](CCCCN)NC(=O)[C@H](CC(C)C)NC(=O)[C@H](CC(N)=O)NC(=O)[C@@H](N)CC(C)C)C(C)C)C(=O)N[C@@H](CC(C)C)C(N)=O [LNLKALLAVAKAIL]
[1]
  MIC: 8 µM (≈ 11.6 µg/mL)
[3]
  MIC: 4 µM (≈ 5.8 µg/mL)
[4]
  MIC: 8 µM (≈ 11.6 µg/mL)
[12]
  MIC: 16 µM (≈ 23.2 µg/mL)
[5]
  MIC: 16 µM (≈ 23.2 µg/mL)

## CC[C@H](C)[C@H](NC(=O)[C@H](C)NC(=O)[C@@H](NC(=O)[C@H](CCCCN)NC(=O)[C@H](C)NC(=O)[C@H](CC(C)C)NC(=O)[C@H](CCCCN)NC(=O)CNC(=O)[C@H](CC(C)C)NC(=O)[C@@H](NC(=O)[C@H](CO)NC(=O)CNC(=O)[C@H](C)NC(=O)[C@H](CCCCN)NC(=O)[C@H](CO)NC(=O)[C@H](C)NC(=O)[C@H](CCSC)NC(=O)CN)C(C)C)C(C)C)C(=O)NCC(=O)N[C@@H](C)C(=O)N[C@@H](CC(C)C)C(N)=O [GMASKAGSVLGKLAKVAIGAL]
[9]
  MIC: 25 µM (≈ 48.5 µg/mL)
[3]
  MIC: 100 µM (≈ 194 µg/mL)

## CC[C@H](C)[C@H](NC(=O)[C@@H](NC(=O)[C@H](CO)NC(=O)[C@H](CCCCN)NC(=O)[C@H](C)NC(=O)[C@@H](NC(=O)[C@H](CCCCN)NC(=O)[C@@H](NC(=O)[C@@H](N)CO)C(C)C)C(C)C)C(C)C)C(=O)N1CCC[C@H]1C(=O)N[C@@H](CO)C(=O)N[C@@H](C)C(=O)N[C@H](C(=O)N[C@@H](Cc1ccccc1)C(=O)N[C@@H](C)C(=O)NCC(=O)NCC(=O)N[C@@H](CCCCN)C(=O)N[C@H](C(=O)N[C@@H](Cc1ccccc1)C(=O)O)C(C)C)C(C)C [SVKVAKSVIPSAVFAGGKVF]
Escherichia coli
  MIC: > 129 µM
Bacillus cereus
  MIC: ≥ 129 µM
